Source: article PMC8464836 (Biomolecules, 2021)

How the values were obtained:
[1] = target: T1, dopamine receptor (D2) wild type (D2Rs) (Homo sapiens, UniProt P14416); experiment: D2R competition binding with [3H]-spiperone on membranes of transfected CHO cells; details: for Ki: D2Rs, competition with 180 pM [3H]-spiperone, mean ± SEM, n = 3; for IC50: Table S1, D2Rs, mean ± S.E.M. of 3 independent experiments in triplicate, read-out: IC50 in µM ± SEM
T1 construct: host or cells: CHO cells, transient PEI transfection; membranes prepared 48 h after transfection
T1 sequence (P14416 whole entry): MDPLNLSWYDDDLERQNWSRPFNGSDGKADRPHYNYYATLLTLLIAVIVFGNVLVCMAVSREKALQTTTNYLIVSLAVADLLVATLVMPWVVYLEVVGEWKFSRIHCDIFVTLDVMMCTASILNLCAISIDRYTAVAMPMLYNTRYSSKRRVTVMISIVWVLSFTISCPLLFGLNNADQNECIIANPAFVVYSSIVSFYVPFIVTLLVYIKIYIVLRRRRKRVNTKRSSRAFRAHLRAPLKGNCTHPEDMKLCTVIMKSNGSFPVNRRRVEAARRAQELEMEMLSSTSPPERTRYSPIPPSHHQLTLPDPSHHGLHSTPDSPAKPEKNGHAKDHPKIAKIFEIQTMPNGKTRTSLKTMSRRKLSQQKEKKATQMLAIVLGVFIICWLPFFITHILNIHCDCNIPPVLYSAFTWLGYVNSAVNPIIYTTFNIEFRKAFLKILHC
Method: Chinese hamster ovary cells (CHO cells) were used for the binding experiments. About 24 h before transfection, CHO cells were plated on a 10 cm Petri dish at a density of 1.5 × 10^6 cells and cultivated in 10 mL DMEM/Ham’s F12 supplemented with 10% heat-inactivated fetal bovine serum (FBS).
For transfection, the desired amount of linear polyethyleneimine (PEI) 25_K (Polysciences, Eppelheim, Germany) and DNA (dopamine receptor (D2) wild type, cDNA resource centre, Bloomsberg, PA, USA) were diluted separately in phosphate buffer saline (PBS). After 20 min, DNA was added to PEI solution, mixed and left for an additional 30 min. Final concentration of reactants was 6 µg plasmid DNA and 18 µg PEI per ml. PEI/DNA complex was added (1 mL/dish) and the plates were incubated for another 24 h. Then, the medium was replaced with fresh DMEM/Ham’s F12 with 10% FBS and incubated for an additional 24 h. Cells were maintained at 37 °C in a 5% CO2-humidified atmosphere.
About 48 h after transfection, cells were washed with PBS, mechanically detached from the dish with a plastic scraper in the ice-cold PBS, and centrifuged for 3 min at 250× g. Pellet was suspended in the ice-cold homogenization medium (100 mM NaCl, 20 mM Na-HEPES, 10 mM EDTA, pH 7.4) and homogenized on ice by two 30-s strokes using Polytron homogenizer (Ultra-Turrax; Janke & Kunkel GmbH & Co. KG, IKA-Labortechnik, Staufen, Germany) with a 30-s pause between strokes. Cell homogenates were centrifuged for 5 min at 1000× g. The supernatant was collected and centrifuged for 30 min at 30,000× g. Pellets were suspended in incubation medium (100 mM NaCl, 20 mM Na-HEPES, 10 mM MgCl2, pH 7.4), left for 30 min at 4 °C and centrifuged again for 30 min at 30,000× g. The membrane pellets were kept at −80 °C until use.
All radioligand binding experiments were optimized and carried out as described by El-Fakahany and Jakubik. […] Saturation experiments were performed in 800 μL volume containing: 400 μL of the membrane suspension and 400 μL of the radioligand in six increasing concentrations (ranging from 31 to 1000 pM).
The examined compounds were diluted in incubation buffer and tested in six concentrations (ranging from 0.1 nM–1 mM). The reactions were performed in 400 µL volume containing: 100 µL of the radioligand, 100 µL of tested substances dilution, and 200 µL of the membranes.
Nonspecific binding was determined in the presence of 10 μM unlabeled sulpiride. Membrane suspensions from both saturation and binding experiments (approximately 10 μg of membrane proteins per sample) were incubated in 96-well plates for 1 h at 25 °C in the incubation medium (100 mM NaCl, 20 mM Na-HEPES,10 mM MgCl2, pH = 7.4) in a shaking incubator (25 °C; PST-60HL, Biosan, Riga, Latvia).
The binding reactions were terminated by filtration of the membranes through APFC filter plate (Millipore, Prague, Czech Republic) pre-soaked with 0.5% PEI and washed with ice-cold distilled water using a Brandel cell harvester (Brandel, Gaithersburg, MD, USA). Then, filters with labelled membranes were dried. After 24 h, scintillation cocktail (Rotiszint eco plus, Carl Roth) was added to each sample and radioactivity was quantified by liquid scintillation spectrometry using Wallac Microbeta scintillation counter (Wallac, Turku, Finland). Competition binding experiments were performed per triplicate and all experiments were performed three times. Protein concentration was determined by the Lowry method in the Peterson modification.

CHO-K1 cells = experiment: MTT assay on CHO-K1 cells; type: cell-based, Chinese hamster; details: Cricetulus griseus, cell viability, 24 h exposure, mean ± SEM, n = 3
Method: Standard MTT (3-[4,5-dimethylthiazol-2-yl]-2,5-diphenyltetrazolium bromide) assay (Sigma Aldrich, Prague, Czech Republic) was used according to the manufacturer´s protocol on the CHO-K1 (Chinese hamster ovary, ECACC, Salisbury, UK) in order to compare the effect of different compounds within the series. The cells were cultured according to ECACC recommended conditions and seeded in a density of 8000 per well as described previously. […] Cells were exposed to a tested compound for 24 h. Then the medium was replaced by a medium containing 10 μM of MTT and cells were allowed to produce formazan for another approximately 3 h under surveillance. Thereafter, medium with MTT was sucked out and crystals of formazan were dissolved in DMSO (100 µL). Cell viability was assessed spectrophotometrically by the amount of formazan produced. Absorbance was measured at 570 nm with 650 nm reference wavelength on Synergy HT (BioTek, Winooski, VT, USA). IC50 was then calculated from the control-subtracted triplicates using non-linear regression (four parameters) of GraphPad Prism 9 software. Final IC50 and SEM values were obtained as a mean of three independent measurements.

[2] = PAMPA assay (Polar Brain Lipid membrane); details: for CNS (+/−): BBB permeability class predicted from PAMPA Pe; for Papp: PAMPA, pH 7.4
Method: In this study, it has been used as a non-cell-based in vitro assay carried out in a coated 96-well membrane filter. The filter membrane of the donor plate was coated with PBL (Polar Brain Lipid, Avanti, AL, USA) in dodecane (4 µL of 20 mg/mL PBL in dodecane) and the acceptor well was filled with 300 µL of PBS pH 7.4 buffer (VA tested compounds were dissolved first in the DMSO/phosphate-buffered saline mixture (maximum 0.5% v/v of DMSO) and subsequently diluted with phosphate-buffered saline (pH 7.4) to final concentrations of 40–100 μM in the donor wells). […] About 300 µL of the donor solution was added to the donor wells (VD) and the donor filter plate was carefully put on the acceptor plate so that coated membrane was “in touch” with both donor solution and acceptor buffer. Test compound diffused from the donor well through the lipid membrane (Area = 0.28 cm^2) to the acceptor well. The concentration of the drug in both donor and the acceptor wells were assessed after 3, 4, 5, and 6 h of incubation in quadruplicate using the UV plate reader Synergy HT (Biotek, Winooski, VT, USA) at the maximum absorption wavelength of each compound. Besides that, solution of theoretical compound concentration, simulating the equilibrium state established if the membrane were ideally permeable was prepared and assessed as well. Concentration of the compounds in the donor and acceptor well and equilibrium concentration were calculated from the standard curve and expressed as the permeability (Pe) according to the equation:(4) Pe=C×ln(1−[drug] acceptor/[drug] equilibrium) where C=(VD×VA)/(VD×VA) Area×Time

D2Rs = details: Figure 1; cited from earlier work
D3Rs = details: Figure 1; cited from earlier work

Row | Compound | Ki [1] [µM] | IC50 [1] [µM] | Papp [2] [×10⁻⁶ cm/s] | IC50 (CHO-K1 cells) [mM] | CNS (+/−) [2] | pKi for D2Rs (D2Rs) | pKi for D3Rs (D3Rs) | Ki (D2Rs) [nM]
1 | O=C1CCc2ccccc2N1CCCN1CCCC1 [5a, 1-(3-(Pyrrolidin-1-yl)propyl)-3,4-dihydroquinolin-2(1H)-one] | 24 ± 5.8 | 98 ± 23 | 7.3 ± 0.8 | 2 ± 0.8 | CNS + (CNS + (high BBB permeability predicted), Pe (10^−6 cm∙s^−1) > 4.0) | – | – | –
2 | CCN(CC)CCCN1C(=O)CCc2ccccc21 [5f, 1-(3-(Diethylamino)propyl)-3,4-dihydroquinolin-2(1H)-one] | 37 ± 8.6 | 150 ± 34 | 9.4 ± 0.4 | 0.9 ± 0.2 | CNS + (CNS + (high BBB permeability predicted), Pe (10^−6 cm∙s^−1) > 4.0) | – | – | –
3 | COCCN(C)CCCN1C(=O)CCc2ccccc21 [5g, 1-(3-((2-Methoxyethyl)(methyl)amino)propyl)-3,4-dihydroquinolin-2(1H)-one] | 26 ± 6.1 | 106 ± 24 | 10 ± 1.6 | 1.5 ± 0.5 | CNS + (CNS + (high BBB permeability predicted), Pe (10^−6 cm∙s^−1) > 4.0) | – | – | –
4 | O=C1CCc2ccccc2N1CCCCN1CCCC1 [6a, 1-(4-(Pyrrolidin-1-yl)butyl)-3,4-dihydroquinolin-2(1H)-one] | 23 ± 3.6 | 93 ± 14 | 7.7 ± 1.8 | 1.1 ± 0.2 | CNS + (CNS + (high BBB permeability predicted), Pe (10^−6 cm∙s^−1) > 4.0) | – | – | –
5 | O=C1CCc2ccccc2N1CCCCN1CCOCC1 [6d, 1-(4-Morpholinobutyl)-3,4-dihydroquinolin-2(1H)-one] | 41 ± 14 | 166 ± 56 | 17 ± 2.1 | 1.3 ± 0.2 | CNS + (CNS + (high BBB permeability predicted), Pe (10^−6 cm∙s^−1) > 4.0) | – | – | –
6 | CCN(CC)CCCCN1C(=O)CCc2ccccc21 [6f, 1-(4-(Diethylamino)butyl)-3,4-dihydroquinolin-2(1H)-one] | 27 ± 4.7 | 103 ± 19 | 7.4 ± 0.9 | 1.8 ± 0.3 | CNS + (CNS + (high BBB permeability predicted), Pe (10^−6 cm∙s^−1) > 4.0) | – | – | –
7 | COCCN(C)CCCCN1C(=O)CCc2ccccc21 [6g, 1-(4-((2-Methoxyethyl)(methyl)amino)butyl)-3,4-dihydroquinolin-2(1H)-one] | 45 ± 11 | 188 ± 38 | 9.5 ± 1.1 | 2.1 ± 0.8 | CNS + (CNS + (high BBB permeability predicted), Pe (10^−6 cm∙s^−1) > 4.0) | – | – | –
8 | NS(=O)(=O)c1cc2c(cc1Cl)N=CNS2(=O)=O [Chlorothiazide, reference compound] | – | – | 1.2 ± 0.5 | – | – | – | – | –
9 | CNC(=C[N+](=O)[O-])NCCSCc1ccc(CN(C)C)o1 [Ranitidine, reference compound] | – | – | 0.4 ± 0.3 | – | CNS − (CNS − (low BBB permeability predicted), Pe (10^−6 cm∙s^−1) < 2.0) | – | – | –
10 | COc1ccccc1N1CCN(CCCN2C(=O)CCc3ccccc32)CC1 [USC-D301] | – | – | – | – | – | 7.8 | 6.4 | –
11 | CCc1cc(Cl)c(OC)c(C(=O)NC[C@@H]2CCCN2CC)c1O [eticlopride] | – | – | – | – | – | – | – | 0.1

More lines, in order of falling Ki [1], values ahead:

Row | Ki [1] [µM] | IC50 [1] [µM] | Papp [2] [×10⁻⁶ cm/s] | Compound | IC50 (CHO-K1 cells) [mM] | CNS (+/−) [2] | pKi for D2Rs (D2Rs) | pKi for D3Rs (D3Rs) | Ki (D2Rs) [nM]
12 | 21 ± 0.6 | 82 ± 2.3 | 7.1 ± 1.2 | CN1CCN(CCCCN2C(=O)CCc3ccccc32)CC1 [6c, 1-(4-(4-Methylpiperazin-1-yl)butyl)-3,4-dihydroquinolin-2(1H)-one] | 1.2 ± 0.2 | CNS + (CNS + (high BBB permeability predicted), Pe (10^−6 cm∙s^−1) > 4.0) | – | – | –
13 | 20 ± 1.6 | 80 ± 6.3 | 12 ± 2 | O=C1CCc2ccccc2N1CCCN1CCOCC1 [5d, 1-(3-Morpholinopropyl)-3,4-dihydroquinolin-2(1H)-one] | 1.1 ± 0.3 | CNS + (CNS + (high BBB permeability predicted), Pe (10^−6 cm∙s^−1) > 4.0) | – | – | –
14 | 14 ± 2.5 | 57 ± 10 | 10 ± 1.4 | O=C1CCc2ccccc2N1CCCCN1CCCCC1 [6b, 1-(4-(Piperidin-1-yl)butyl)-3,4-dihydroquinolin-2(1H)-one] | 0.8 ± 0.2 | CNS + (CNS + (high BBB permeability predicted), Pe (10^−6 cm∙s^−1) > 4.0) | – | – | –
15 | 12 ± 3.2 | 49 ± 13 | 7 ± 0.4 | CN1CCN(CCCN2C(=O)CCc3ccccc32)CC1 [5c, 1-(3-(4-Methylpiperazin-1-yl)propyl)-3,4-dihydroquinolin-2(1H)-one] | 2 ± 1 | CNS + (CNS + (high BBB permeability predicted), Pe (10^−6 cm∙s^−1) > 4.0) | – | – | –
16 | 9.7 ± 1.6 | 39 ± 6.4 | 13 ± 0.1 | O=C1CCc2ccccc2N1CCCN1CCCCC1 [5b, 1-(3-(Piperidin-1-yl)propyl)-3,4-dihydroquinolin-2(1H)-one] | 1.5 ± 0.3 | CNS + (CNS + (high BBB permeability predicted), Pe (10^−6 cm∙s^−1) > 4.0) | – | – | –
17 | 9.7 ± 2.3 | 40 ± 8.2 | 23 ± 3.3 | O=C1CCc2ccccc2N1CCCCN1CCSCC1 [6e, 1-(4-Thiomorpholinobutyl)-3,4-dihydroquinolin-2(1H)-one] | 0.8 ± 0.1 | CNS + (CNS + (high BBB permeability predicted), Pe (10^−6 cm∙s^−1) > 4.0) | – | – | –
18 | 7.6 ± 1.9 | 30 ± 7.7 | 24 ± 2.1 | O=C1CCc2ccccc2N1CCCN1CCSCC1 [5e, 1-(3-Thiomorpholinopropyl)-3,4-dihydroquinolin-2(1H)-one] | 0.5 ± 0.1 | CNS + (CNS + (high BBB permeability predicted), Pe (10^−6 cm∙s^−1) > 4.0) | – | – | –
